Experiments:
5-HT6 = test: 5-HT receptor binding, displacement of tritiated ligands; conditions: at 10 μM
Experimental: (§1) 5-HT receptor binding was measured using membrane preparations of brain regions known to be enriched with given 5-HT receptor subtype(s). The assay subsequently measured the displacement of tritiated ligands known to bind to a given 5-HT subtype.
(§2) A receptor binding assay was performed for ICI-1259 and ICI-1260 showing that at 10 μM, these compounds bind receptors 5-HT1A(h), 5-HT1B, 5-HT1D(h), 5-HT2A, 5-HT2A(h), 5-HT2B, 5-HT2C, 5-HT3,5-HT3(h), 5-HT4, 5-HT5A(h), 5-HT6, and 5-HT7.

5-HT1A(h) = target: T1, 5-HT1A(h) (Homo sapiens, UniProt P08908); test: as above; conditions: at 10 μM
T1 construct: from tissue
T1 sequence (P08908 1-422): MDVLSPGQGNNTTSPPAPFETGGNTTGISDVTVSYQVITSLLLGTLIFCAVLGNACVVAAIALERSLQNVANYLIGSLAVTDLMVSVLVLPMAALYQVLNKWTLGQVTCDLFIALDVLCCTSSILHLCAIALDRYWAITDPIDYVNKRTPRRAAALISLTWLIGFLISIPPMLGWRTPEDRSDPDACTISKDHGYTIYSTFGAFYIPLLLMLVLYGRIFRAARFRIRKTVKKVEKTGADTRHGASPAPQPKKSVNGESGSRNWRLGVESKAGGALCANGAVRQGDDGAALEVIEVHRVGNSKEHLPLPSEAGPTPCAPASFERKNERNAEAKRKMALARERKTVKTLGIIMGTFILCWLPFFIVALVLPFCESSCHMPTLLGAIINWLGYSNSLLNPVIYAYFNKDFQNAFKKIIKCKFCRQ
Experimental: as §1, §2

5-HT3(h) = target: T2, 5-HT3(h) (Homo sapiens, UniProt P46098); test: as above; conditions: at 10 μM
T2 construct: from tissue
T2 sequence (P46098 24-478): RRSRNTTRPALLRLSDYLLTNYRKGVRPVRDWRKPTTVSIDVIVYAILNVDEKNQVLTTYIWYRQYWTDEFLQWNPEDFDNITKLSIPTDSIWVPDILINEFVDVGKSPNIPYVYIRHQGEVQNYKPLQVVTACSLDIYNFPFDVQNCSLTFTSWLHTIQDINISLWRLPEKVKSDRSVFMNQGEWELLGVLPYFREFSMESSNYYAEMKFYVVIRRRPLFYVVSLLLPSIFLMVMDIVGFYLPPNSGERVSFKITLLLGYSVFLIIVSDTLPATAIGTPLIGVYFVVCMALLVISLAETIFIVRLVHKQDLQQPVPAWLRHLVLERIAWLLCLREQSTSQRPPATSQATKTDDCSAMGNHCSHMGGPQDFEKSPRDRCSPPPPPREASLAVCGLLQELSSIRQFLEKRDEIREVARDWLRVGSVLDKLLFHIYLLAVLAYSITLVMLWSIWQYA
Experimental: as §1, §2

5-HT2A = test: as above; conditions: at 10 μM
Experimental: as §1, §2

5-HT1B = test: as above; conditions: at 10 μM
Experimental: as §1, §2

5-HT5A(h) = target: T3, 5-HT5A(h) (Homo sapiens, UniProt P47898); test: as above; conditions: at 10 μM
T3 construct: from tissue
T3 sequence (P47898 whole entry): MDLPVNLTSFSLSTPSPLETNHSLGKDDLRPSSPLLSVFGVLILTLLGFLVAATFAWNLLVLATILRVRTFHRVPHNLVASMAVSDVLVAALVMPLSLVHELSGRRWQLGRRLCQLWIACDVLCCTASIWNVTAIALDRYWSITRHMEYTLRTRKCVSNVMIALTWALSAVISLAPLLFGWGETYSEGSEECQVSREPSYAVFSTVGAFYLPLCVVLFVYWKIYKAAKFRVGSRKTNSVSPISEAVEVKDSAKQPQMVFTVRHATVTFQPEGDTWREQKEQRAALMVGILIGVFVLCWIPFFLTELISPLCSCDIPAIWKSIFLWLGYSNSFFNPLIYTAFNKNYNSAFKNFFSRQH
Experimental: as §1, §2

5-HT2C = test: as above; conditions: at 10 μM
Experimental: as §1, §2

5-HT4 = test: as above; conditions: at 10 μM
Experimental: as §1, §2

5-HT1D(h) = target: T4, 5-HT1D(h) (Homo sapiens, UniProt P28221); test: as above; conditions: at 10 μM
T4 construct: from tissue
T4 sequence (P28221 whole entry): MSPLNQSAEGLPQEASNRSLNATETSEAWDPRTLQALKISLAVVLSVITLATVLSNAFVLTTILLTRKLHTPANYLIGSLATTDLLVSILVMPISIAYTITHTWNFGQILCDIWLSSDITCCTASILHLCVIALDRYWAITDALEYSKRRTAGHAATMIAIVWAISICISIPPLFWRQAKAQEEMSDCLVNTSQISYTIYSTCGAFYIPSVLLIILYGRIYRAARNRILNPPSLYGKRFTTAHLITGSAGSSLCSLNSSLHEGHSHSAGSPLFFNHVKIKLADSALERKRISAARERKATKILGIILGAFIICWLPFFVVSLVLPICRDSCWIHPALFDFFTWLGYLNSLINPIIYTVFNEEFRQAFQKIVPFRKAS
Experimental: as §1, §2

5-HT2A(h) = target: T5, 5-HT2A(h) (Homo sapiens, UniProt P28223); test: as above; conditions: at 10 μM
T5 construct: from tissue
T5 sequence (P28223 whole entry): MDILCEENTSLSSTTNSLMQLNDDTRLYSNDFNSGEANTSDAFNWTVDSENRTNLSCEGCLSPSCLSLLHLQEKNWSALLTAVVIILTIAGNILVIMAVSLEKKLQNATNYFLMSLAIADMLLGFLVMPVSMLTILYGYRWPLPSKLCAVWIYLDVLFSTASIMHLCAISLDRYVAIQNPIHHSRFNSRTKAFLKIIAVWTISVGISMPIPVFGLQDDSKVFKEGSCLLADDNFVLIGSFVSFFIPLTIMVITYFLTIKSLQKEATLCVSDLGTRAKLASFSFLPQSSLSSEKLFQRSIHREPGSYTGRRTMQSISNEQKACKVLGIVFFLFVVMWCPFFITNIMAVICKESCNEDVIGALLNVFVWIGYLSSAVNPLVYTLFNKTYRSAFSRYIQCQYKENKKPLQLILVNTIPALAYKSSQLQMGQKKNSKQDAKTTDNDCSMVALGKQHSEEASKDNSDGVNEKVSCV
Experimental: as §1, §2

5-HT3 = test: as above; conditions: at 10 μM
Experimental: as §1, §2

5-HT7 = test: as above; conditions: at 10 μM
Experimental: as §1, §2

5-HT2B = target: T6, 5-HT2B (Homo sapiens, UniProt P41595); test: as above; conditions: at 10 μM
T6 construct: from tissue
T6 sequence (P41595 whole entry, species assumed): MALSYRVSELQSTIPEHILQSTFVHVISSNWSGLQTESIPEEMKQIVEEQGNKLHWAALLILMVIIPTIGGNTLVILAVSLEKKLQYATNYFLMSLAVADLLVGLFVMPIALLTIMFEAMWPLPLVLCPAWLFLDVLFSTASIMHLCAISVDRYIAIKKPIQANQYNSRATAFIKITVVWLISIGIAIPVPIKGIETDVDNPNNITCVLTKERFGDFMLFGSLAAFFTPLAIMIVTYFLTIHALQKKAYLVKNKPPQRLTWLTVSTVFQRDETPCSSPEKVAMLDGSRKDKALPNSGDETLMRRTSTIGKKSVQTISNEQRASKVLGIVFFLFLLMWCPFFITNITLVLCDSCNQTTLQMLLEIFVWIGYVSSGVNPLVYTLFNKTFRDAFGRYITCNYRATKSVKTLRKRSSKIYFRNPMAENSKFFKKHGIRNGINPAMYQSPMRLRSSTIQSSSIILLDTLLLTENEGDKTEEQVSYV
Experimental: as §1, §2

[1] = test system: bovine type 2 collagen immunized female Lewis rats; test: Collagen-induced arthritis assay, oral gavage treatment, ankle diameter; assay type: in vivo, rat
Experimental: Female Lewis rats (CR) weighing between 125-200 g were immunized with bovine type 2 collagen, 2 mg/ml in a 1:1 solution of 0.01 N acetic acid and Freund's incomplete adjuvant (“FIA”). A 0.1 ml portion of the collagen solution was injected id (intradermally) at three sites on the rat. Rats were immunized with the collagen solution on days 1 and 6 of the study. […] On day 9 (study day “0”), baseline ankle diameters were measured. On days 10-15 (study days 1-6), the rats were then treated, via oral gavage, with either 1, 5, or 25 mg/kg of one of ICI-1259 or ICI-1260, prepared as described below. Ankle diameter measurements were measured on each of days 10-16.
Separate solutions of ICI-1259 and ICI-1260 were prepared in Dulbecco's PBS (pH 7) (“vehicle”) at 1 mg/ml. Control animals, who had not been immunized, were given vehicle without any compound. In a further control, immunized rats were given vehicle without ICI-1259 or ICI-1260. In still another control, immunized rats were treated with Enbrel™ at 10 mg/kg.

SMILES	receptor binding (5-HT6)	receptor binding (5-HT1A(h))	receptor binding (5-HT3(h))	receptor binding (5-HT2A)	receptor binding (5-HT1B)	receptor binding (5-HT5A(h))	receptor binding (5-HT2C)	receptor binding (5-HT4)	receptor binding (5-HT1D(h))	receptor binding (5-HT2A(h))	receptor binding (5-HT3)	receptor binding (5-HT7)	receptor binding (5-HT2B)	reduction in ankle swelling ([1]; oral 25 mg/kg, study days 5-7)	reduction in ankle swelling ([1]; oral 5 mg/kg, larger standard errors at each dose)	reduction in ankle swelling ([1]; oral 25 mg/kg, larger standard errors at each dose)
CNCC(=O)NCCCN1CCC(CCCN2c3ccccc3Sc3ccc(C(F)(F)F)cc32)CC1 [ICI-1259, 2-(methylamino)-N-(3-(4-(3-(2-(trifluoromethyl)-10H-phenothiazin-10-yl)propyl)piperidin-1-yl)propyl)acetamide]	bind	bind	bind	bind	bind	bind	bind	bind	bind	bind	bind	bind	bind	statistically significant reduction in ankle swelling		
NCC(=O)NCCCN1CCC(CCCN2c3ccccc3Sc3ccc(C(F)(F)F)cc32)CC1 [ICI-1260, 2-amino-N-(3-(4-(3-(2-(trifluoromethyl)-10H-phenothiazin-10-yl)propyl)piperidin-1-yl)propyl)acetamide]	bind	bind	bind	bind	bind	bind	bind	bind	bind	bind	bind	bind	bind		showed a reduction in ankle swelling	showed a reduction in ankle swelling

Source: US20090275557A1, “Novel Composition for Treatment of Diseases Related to Activated Lymphocytes” (Immune Control, Inc., priority 2008, published 2009)
